Test results as given in patent US20250275948A1, “(N-[4-(2,3-DIHYDRO-1H-INDEN-5-YL)-1,3-THIAZOL-2-YL]-2-[4-METHYL-4-(NAPHTHALEN-2-YL)-2,5-DIOXOIMIDAZOLIDIN-1-YL]ACETAMIDE AS STABILIZER OF CLOCK:BMAL1 INTERACTION FOR THE TREATMENT OF CIRCADIAN RHYTHM DISEASES AND DISORDERS” (KOC UNIVERSITESI, priority 2022, published 2025).

How the values were obtained:
[1] = test system: WT, Clock knockout and Bmal1 knockout MEF cells; assay: Circadian rhythm monitoring in WT, Clock KO and Bmal1 KO MEF cells transduced with Bmal1-dLuc; type: cell-based, mouse; details: WT vs Clock KO vs Bmal1 KO MEF cells
Experimental: Wild type (WT), Clock knockout (KO), and Bmal1 KO mouse embryonic fibroblast (MEF) cells were transduced with Bmal1-dLuc lentiviral particles to enable us to monitor the effect of CLK95 on circadian oscillation. To this end, virus particles were produced as follow: HEK 293T cells were transfected with 10 μg pLV6-Bmal1-dluc, 9 μg pCMV-ΔR8.2dvpr packaging and lug pCMV-VSVG envelope vectors at ˜70-80% confluency. The plasmid cocktail was mixed with 20 μL PEI in 400 μL DMEM and incubated at room temperature for 10 minutes and cells were transfected. After 16 hours of incubation at 37° C. under 5% CO2, 3 mL fresh D10 medium were added to plates. 48 hours after transfection, cell medium was replaced with 8 mL fresh D10 medium. Lentiviral particles were harvested at 72 and 96 hours post transfection. Collected particles were filtered through 0.45 μM syringe filter and aliquoted (750 μL) for storage at −80° C. for further use.
WT, Clock KO, and Bmal1 KO MEF cells were transduced with Bmal1-dluc lentiviral particles as follow: Cells were seeded in 35 mm cell culture plates at the density of 1×10^5 cell/plate. […] 72-hours post-transduction cells were synchronized with Dexamethasone (0.1 μM) and prepared for luminescence recording of the circadian oscillation as indicated at section 3.4

CLOCK and BMAL1 = biological target: T1, CLOCK and BMAL1 (Mus musculus, UniProt O08785+Q9WTL8); assay: Subcellular fractionation from mice liver; design: species or system mice (C57BL/6J); details: in vivo and in vitro
T1 construct: from tissue; host or cells: liver of C57BL/6J mice
Experimental: 8-12 weeks old male C57BL/6J mice were used for in vivo studies. Mice weighing 24-28 grams were subjected to a single dose of CLK95 (50 mg/kg) or vehicle (DMSO:Cremophor EL: 0.9% NaCl; 2.5:15:82.5, v/v/v) intraperitoneally. Animals which were obtained from Koç University Animal Research Facility were fed ad libitum. Four hours after treatment, animals were sacrificed, and the internal organs were harvested.
Subcellular fractionation from mice liver was performed by using 10 mg tissue sample. Buffers that were used in this process are same as in given in section 3.13. First, the tissue was washed in 500 μL ice-cold 1×PBS buffer and then resuspended in 300 μL cytosolic lysis buffer by pipetting and incubated on ice for 10 min. Samples were centrifuged at 660×g for 5 minutes (4° C.) to get rid of cell debris. While supernatants were collected and transferred to new microcentrifuge tubes for processing later to give cytosolic fractions, pellets containing intact nucleus were washed 3 times with 300 μL cytosolic lysis buffer. At the end of each wash, suspensions were centrifugated for 5 minutes at 660×g (4° C.). […] Samples were analysed with Western blot as described earlier using anti-CLOCK (Bethyl, A302-618A), anti-BMAL1 (Santa Cruz Biotech., SC-365645), anti-CRY1 (Bethyl, A302-614A), anti-Histone H3 (Abcam, ab1791), and anti-αTUBULIN (Sigma-Aldrich, T9026) antibodies were used.

CLOCK:BMAL1 interaction = assay: Co-immunoprecipitation (Co-IP) of CLOCK with FLAG-BMAL1; type: biochemical
Experimental: To investigate the binding sites of the CLK95 on CLOCK and BMAL1, promising residues which were computationally determined to interact with small molecule were mutated via site-directed mutagenesis. […] These amino acid residues were introduced to Bmal1 and CLOCK genes by PCR based mutagenesis. FLAG-tagged pcDNA4a-Bmal1 and […] were used as template DNAs. Each PCR reaction consisted of 50 ng of template DNA, 0.2 μM primer pair, 0.2 mM dNTPs and 3 units of Pfu DNA polymerase. Then the PCR reaction was performed under these conditions: 5 minutes at 98° C. followed by 12 cycles of 1 minute at 98° C., 1 minute at 55° C. and 15 minutes at 72° C. The PCR reaction completed with a final extension step at 72° C. for 15 minutes. PCR products were analysed with 0.8% of agarose. Bands at the right size were further treated with 1 μL FastDigest Dpn I (Thermo Scientific, FD1704) for 1 hour at 37° C. to digest methylated-parental DNA. Subsequently, DH5a (a strain of E. coli) cells were transformed with the 7 μL PCR product. Standard heat-shock transformation protocol was used. Transformed cells were plated on Ampicillin (100 μg/mL) containing Luria-Bertani (LB) agar plates and incubated overnight at 37° C. Later, colonies formed on the LB ager plate were selected to culture in 5 mL LB broth containing Ampicillin (100 μg/mL). After overnight incubation at 37° C., cells were harvested and plasmid isolation was performed with Macherey Nagel's NucleoSpin Plasmid (NoLid), Mini kit. Isolated plasmids were then sent for Sanger sequencing (Macrogen) to confirm desired single-site mutation.
To assess the effect CLK95 on BMAL1-CLOCK interaction Co-IP was employed. HEK 293T cell were transfected with FLAG-tagged pcDNA4a-Bmal1 or pCMV-Sport6-CLOCK plasmids. The FLAG-tagged pcDNA4a-Bmal1-R126A and pCMV-Sport6-CLOCK-F80A-K220A mutants were used in this assay. […] The protein concentration of each lysate was determined with the Pierce™ 660 nm Protein assay (Thermo Scientific, 22660). […]

CC1(c2ccc3ccccc3c2)NC(=O)N(CC(=O)Nc2nc(-c3ccc4c(c3)CCC4)cs2)C1=O (centres unmarked) [CLK95]
dependence of circadian phenotype on CLOCK and BMAL1 [1]: effecting the circadian phenotype through CLOCK and BMAL1
translocation of CLOCK and BMAL1 into the nucleus (CLOCK and BMAL1): interfering with the translocation of CLOCK and BMAL1 into the nucleus both in vivo and in vitro
stability of CLOCK-BMAL1 (CLOCK:BMAL1 interaction): increasing the stability of CLOCK-BMAL1
interaction between CLOCK and BMAL1 (CLOCK:BMAL1 interaction; Co-IP, HEK 293T lysates): increasing the interaction between CLOCK and BMAL1
residue needed for binding to CLOCK:BMAL1 complex (CLOCK:BMAL1 interaction; R126A mutant Co-IP): Arg126 of BMAL1 is essential
